Values joined by “and” are separate entries in the source; they are usually repeats but may differ in a detail not shown here. Equal entries are not always repeated. Where two headings read alike, the source gives them in different places.
Key:
Assay type in all cases: cell-based
[1] = C4–2 PSA6.1-Luc viability counter screen; settings: human, C4–2 cells (C4–2 PSA6.1-Luc); cytotoxicity counter screen; read-out: C4–2 PSA6.1-Luc viability CS GI50
full length AR = molecular target: T1, full length AR (Homo sapiens, UniProt P10275, T878A); experiment: PSA-6.1 luciferase reporter assay in C4–2 CRPC cells; settings: C4–2 cells; 50 nM DHT; 24 h; read-out: C4–2 PSA6.1-Luc Reporter IC50
T1 construct: DHT-induced full length AR directed TA; endogenous in cells; host or cells: C4–2 castration resistant prostate cancer cells
T1 sequence (P10275 1-920 T878A): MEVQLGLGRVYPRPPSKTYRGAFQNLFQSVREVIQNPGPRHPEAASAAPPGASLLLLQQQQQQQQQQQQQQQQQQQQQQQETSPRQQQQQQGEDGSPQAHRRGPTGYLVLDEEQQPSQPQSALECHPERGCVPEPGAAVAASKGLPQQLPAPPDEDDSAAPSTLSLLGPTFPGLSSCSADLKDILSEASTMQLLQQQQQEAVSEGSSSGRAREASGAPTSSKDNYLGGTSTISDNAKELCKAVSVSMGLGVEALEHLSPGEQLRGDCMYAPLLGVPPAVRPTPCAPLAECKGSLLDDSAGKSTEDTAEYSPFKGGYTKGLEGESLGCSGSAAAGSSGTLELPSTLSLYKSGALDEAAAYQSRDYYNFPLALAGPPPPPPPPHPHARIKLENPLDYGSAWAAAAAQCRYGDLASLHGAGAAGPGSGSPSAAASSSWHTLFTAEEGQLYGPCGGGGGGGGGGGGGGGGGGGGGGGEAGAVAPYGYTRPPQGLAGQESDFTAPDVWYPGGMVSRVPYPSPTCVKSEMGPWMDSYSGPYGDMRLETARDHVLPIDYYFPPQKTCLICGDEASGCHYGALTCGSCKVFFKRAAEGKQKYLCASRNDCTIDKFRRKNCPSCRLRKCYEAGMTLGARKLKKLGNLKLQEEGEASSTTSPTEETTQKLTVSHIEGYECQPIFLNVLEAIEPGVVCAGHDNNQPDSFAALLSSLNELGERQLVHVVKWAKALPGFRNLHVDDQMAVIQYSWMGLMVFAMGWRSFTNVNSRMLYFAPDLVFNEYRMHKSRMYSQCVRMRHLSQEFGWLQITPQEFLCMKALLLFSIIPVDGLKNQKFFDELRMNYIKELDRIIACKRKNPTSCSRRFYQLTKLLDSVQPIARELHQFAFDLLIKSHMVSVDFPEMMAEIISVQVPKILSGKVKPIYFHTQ
Description: The PSA-6.1-Luc luciferase reporter plasmid was provided by Dr. Zhou Wang in the Urology department of the University of Pittsburgh Cancer Institute. The PSA-6.1-Luc reporter is controlled by a fragment of the PSA promoter that contains at least three AREs. The PSA-6.1-Luc plasmid (12 ng/well) was combined with Fugene 6 at a ratio 6:1 in SFM and incubated for 25 min at room temperature before being combined with C4–2 cells suspended in RPMI 1640 media containing 1% penicillin-streptomycin, 1% L-glutamine, and 10% FBS. Transfected cells were then seeded into white opaque 384-well assay plates (Greiner Bio-one, #781080) at 6000 cells per well in a volume of 30 μL and incubated in 5% CO2, 37 °C, and 95% humidity for 24 h.

[2] = PC-3-ARV7-GFP viability counter screen; settings: human, PC3-AR-V7-GFP cells; cytotoxicity counter screen; read-out: PC-3-ARV7-GFP viability CS GI50
PC-3 cells = experiment: Prostate cancer cell line growth inhibition assay, PC-3; settings: read-out: PC3 GI50 (AR−)
Description: The PC-3, DU-145, LNCaP, C4–2, and 22Rv1 PC cell line growth inhibition assays have been described previously. On day 1, each PC cell line was harvested, counted, and seeded into two 384-well assay plates, a time zero (T0) and a time 72 h (T72) plate. PC cell lines were all seeded at 1000 cells per well in 45 μL of tissue culture media in uncoated white clear bottom 384-well assay plates (VWR, # 82050–076) using a Matrix electronic multichannel pipette (Thermo Fisher Scientific, Waltham, MA) and cultured overnight at 37 °C, 5% CO2, and 95% humidity. On day 2, 25 μL of the Cell Titer Glo (CTG) (Promega Corporation, Madison, WI) detection reagent was dispensed into the wells of the T0 assay plate using a Matrix electronic multichannel pipette, and the RLUs were captured on the SpectraMax M5e (Molecular Devices LLC, Sunnyvale, CA) microtiter plate reader. Also on day 2, 5 μL of compounds were transferred into the test wells of the T72 384-well assay plates which were returned to the incubator for 72 h. Control wells received DMSO alone. On day 5, 25 μL of the CTG detection reagent was dispensed into the wells of the T72 assay plate using a Matrix electronic multichannel pipette, and the RLU’s were captured on the SpectraMax M5e microtiter plate reader platform.
In 384-well assays, DMSO minimum (n = 32) and maximum (n = 32) plate control wells were utilized to calculate signal-to-background ratios (S:B) and Z’-factor coefficient assay performance quality control statistics, and to normalize the signals of compound treated wells and to represent 0% and 100% respectively. For the 96-well AR-LBD H^3-DHT radioligand binding assay, eight minimum and maximum plate control wells were utilized to normalize the data. For the PC cell line growth inhibition assays we used the DMSO control data from the T0 and T72 assay plates to assess the dynamic range of the T0 to T72 cell growth, and to calculate S:B ratios and Z’-factor coefficient statistics for the assay signal window (T0 to T72). To normalize the 72 h compound exposure PC growth inhibition data, the signals from the compound treated wells were processed and expressed as% of the T72 DMSO plate controls. IC50 and GI50 values for each of the bioassays were calculated using Graph-Pad Prism 9 software to plot and fit data to curves using the Sigmoidal dose response variable slope equation Y = Bottom + [Top-Bottom]/ [1 + 10^^(LogEC50-X)*HillSlope].

SMILES	IC50 (full length AR)	GI50 (PC-3 cells; 72 h) [µM]	GI50 (PC-3 cells; Homo sapiens, PC-3, 72 h) [µM]	GI50 [1] [µM]	GI50 [2] [µM]
Cc1ccccc1-c1cc(O)c2c(c1)CN(c1nc(C(N)=O)cs1)CCO2 [S1–1]	17.1 µM	70.3	70	> 100	> 100
Cc1ccccc1-c1cc(O)c2c(c1)CN(c1nccs1)CCO2 [S1–3]	29.7 µM	> 100			
Cc1nsc(NC(=O)N2CCC(Sc3ccccc3C)CC2)n1 [S2–6]	2 µM and 2.3 µM		> 100	> 100	> 100
CC(=O)NCCC(=O)NCc1ccc2[nH]c(-c3ccccc3F)c(C)c2c1 [S3–13]	58.5 µM		> 100	> 100	> 100
Cc1c(-c2ccccc2F)[nH]c2ccc(CNC(=O)c3ccc(CO)o3)cc12 [S3–14]	10.8 µM		> 100	> 100	> 100

Now from value to compound, other results behind:

IC50 (full length AR)	GI50 (PC-3 cells; 72 h) [µM]	GI50 (PC-3 cells; Homo sapiens, PC-3, 72 h) [µM]	SMILES	GI50 [1] [µM]	GI50 [2] [µM]
9 µM		32.6	Cc1c(-c2ccccc2F)[nH]c2ccc(CNC(=O)CCc3cn[nH]c3)cc12 [S3–11]	> 100	> 100
7.7 µM		18.4	Cc1c(-c2ccccc2F)[nH]c2ccc(CNC(=O)CCc3cnccn3)cc12 [S3–12]	> 100	> 100
7 µM		23.7	Cc1c(-c2ccc(F)cc2)[nH]c2ccc(CNC(=O)c3ccc(CO)o3)cc12 [S3–15]	> 100	> 100

Reference: publication PMC12366525, “Characterization of allosteric modulators that disrupt androgen receptor co-activator protein-protein interactions to alter transactivation–Drug leads for metastatic castration resistant prostate cancer” (SLAS discovery : advancing life sciences R & D, 2023)
